Experimental data as given in PMC4303209, “A novel phosphatidylinositol 3-kinase (PI3K) inhibitor directs a potent FOXO-dependent, p53-independent cell cycle arrest phenotype characterized by the differential induction of a subset of FOXO-regulated genes” (Breast Cancer Research : BCR, 2014).

System: MCF-7 breast cancer cells
Test: Microarray gene expression analysis (Agilent whole human genome 4 x 44K; compound vs DMSO, LIMMA log2 fold change)
Type: cell-based

Oc1cccc(-c2nc(N3CCOCC3)c3oc4ncccc4c3n2)c1 [PI-103]
PDGFRB log2FC (gene PDGFRB (5159), apoptosis genes): 0.024
PEG3 log2FC (gene PEG3 (5178), apoptosis genes): 0.129
PEG10 log2FC (gene PEG10 (23089), apoptosis genes): -0.104
PF4 log2FC (gene PF4 (5196), apoptosis genes): -0.033
PHLDA3 log2FC (gene PHLDA3 (23612), apoptosis genes): 0.113
PIK3CG log2FC (gene PIK3CG (5294), apoptosis genes): -0.004
PKP1 log2FC (gene PKP1 (5317), apoptosis genes): 0.031
PLEKHG5 log2FC (gene PLEKHG5 (57449), apoptosis genes): 0.199
PLSCR3 log2FC (gene PLSCR3 (57048), apoptosis genes): 0.125
POLB log2FC (gene POLB (5423), apoptosis genes): -0.249
log2FC (gene POLD4 (Gene 57804), cell cycle genes): 0.0256
POR log2FC (gene POR (5447), apoptosis genes): 0.107
POU3F4 log2FC (gene POU3F4 (5456), apoptosis genes): -0.017
POU4F1 log2FC (gene POU4F1, apoptosis genes): 0.019
log2FC (gene PPAT (Gene 10606), cell cycle genes): 0.08
log2FC (gene PPP1CA (Gene 5499), cell cycle genes): -0.18
log2FC (gene PPP2CA (Gene 5515), cell cycle genes): -0.52
PPP2R1A log2FC (gene PPP2R1A (5518), apoptosis genes): 0.062
PRAMEF8 log2FC (gene PRAMEF8 (391002), apoptosis genes): 0.060
PRAMEF10 log2FC (gene PRAMEF10 (343071), apoptosis genes): 0.251
log2FC (gene PRKACB (Gene 5567), cell cycle genes): 0.52
log2FC PRKAG3 (gene PRKAG3 (Gene 53632), cell cycle genes): -0.0237
PRKRA log2FC (gene PRKRA (8575), apoptosis genes): -0.093
PRLR log2FC (gene PRLR (5618), apoptosis genes): 0.00543
PROC log2FC (gene PROC (5624), apoptosis genes): 0.030
PROP1 log2FC (gene PROP1 (5626), apoptosis genes): 0.324
PSMA1 log2FC (gene PSMA1 (5682), apoptosis genes): -0.030
log2FC (gene PSMA2 (Gene 5683), cell cycle genes): 0.17
log2FC (gene PSMA3 (Gene 5684), cell cycle genes): 0.14
PSMA5 log2FC (gene PSMA5 (5686), apoptosis genes): -0.147
log2FC PSMA5 (gene PSMA5 (Gene 5686), cell cycle genes): -0.15
PSMA7 log2FC (gene PSMA7 (5688), apoptosis genes): -2.082
log2FC PSMA7 (gene PSMA7 (Gene 5688), cell cycle genes): -2.08
PSMB3 log2FC (gene PSMB3 (5691), apoptosis genes): 0.053
log2FC (gene PSMB4 (Gene 5692), cell cycle genes): 0.17
PSMB7 log2FC (gene PSMB7 (5695), apoptosis genes): -0.149
log2FC PSMB7 (gene PSMB7 (Gene 5695), cell cycle genes): -0.15
PSMB8 log2FC (gene PSMB8 (5696), apoptosis genes): -0.00568
PSMC4 log2FC (gene PSMC4 (5704), apoptosis genes): -0.023
log2FC PSMC4 (gene PSMC4 (Gene 5704), cell cycle genes): -0.0233
PSMD2 log2FC (gene PSMD2 (5708), apoptosis genes): 0.00374
PSMD13 log2FC (gene PSMD13 (5719), apoptosis genes): -0.172
log2FC (gene PSMD14 (Gene 10213), cell cycle genes): 0.15
log2FC (gene PSME1 (Gene 5720), cell cycle genes): 0.31
PSME2 log2FC (gene PSME2 (5721), apoptosis genes): 0.039
log2FC (gene PTTG1 (Gene 9232), cell cycle genes): -0.21
PYCARD log2FC (gene PYCARD (29108), apoptosis genes): -0.121
log2FC (gene RAB11FIP3 (Gene 9727), cell cycle genes): -0.14
log2FC RAD51C (gene RAD51C (Gene 5889), cell cycle genes): -0.24
log2FC RAE1 (gene RAE1 (Gene 8480), cell cycle genes): -0.15
RAF1 log2FC (gene RAF1 (5894), apoptosis genes): -0.081
log2FC (gene RALA (Gene 5898), cell cycle genes): 0.34
log2FC (gene RALB (Gene 5899), cell cycle genes): 0.08
RAMP2 log2FC (gene RAMP2 (10266), apoptosis genes): 0.059
log2FC RANGAP1 (gene RANGAP1 (Gene 5905), cell cycle genes): -0.09
RAPSN log2FC (gene RAPSN (5913), apoptosis genes): -0.146
RARB log2FC (gene RARB (5915), apoptosis genes): 0.00425
RASSF6 log2FC (gene RASSF6 (166824), apoptosis genes): 0.020
log2FC (gene RBBP8 (Gene 5932), cell cycle genes): 0.34
log2FC (gene RBL1 (Gene 5933), cell cycle genes): 0.17
log2FC (gene RBM7 (Gene 10179), cell cycle genes): 0.23
log2FC (gene RCC1 (Gene 1104), cell cycle genes): -0.14
log2FC REEP4 (gene REEP4 (Gene 80346), cell cycle genes): 0.28
RET log2FC (gene RET (5979), apoptosis genes): -0.025
RHOT2 log2FC (gene RHOT2 (89941), apoptosis genes): 0.051
log2FC RPA2 (gene RPA2 (Gene 6118), cell cycle genes): -0.25
RPS3 log2FC (gene RPS3 (6188), apoptosis genes): -0.043
RPS6KA2 log2FC (gene RPS6KA2 (6196), apoptosis genes): 0.189
log2FC (gene RPS6KB1 (Gene 6198), cell cycle genes): 0.25
RRN3 log2FC (gene RRN3 (653390), apoptosis genes): 0.004
log2FC (gene RSPO1 (Gene 284654), cell cycle genes): -0.11
RYR2 log2FC (gene RYR2 (6262), apoptosis genes): -0.075
S100A9 log2FC (gene S100A9 (6280), apoptosis genes): 0.057
S100A14 log2FC (gene S100A14 (57402), apoptosis genes): 0.033
log2FC (gene SART1 (Gene 9092), cell cycle genes): -0.00235
SCIN log2FC (gene SCIN (85477), apoptosis genes): -0.013
log2FC (gene SEH1L (Gene 81929), cell cycle genes): -0.57
SEMA5A log2FC (gene SEMA5A (9037), apoptosis genes): -0.022
